Test results from US10676791B2, “Methods for predicting response to DNA repair pathway inhibitors in diffuse large B-cell lymphoma” (INSERM (INSTITUT NATIONAL DE LA SANTÉ ET DE LA RECHERCHE …, priority 2014, dated 2020).
Like-named read-outs stand apart in the source and are kept apart here.

Key:
Assay type in all cases: cell-based
[1] = tested on: HT; assay: DLBCL cell line growth inhibition (Cell Titer Glo Luminescent Assay), HT; conditions: read-out: PJ34 IC50
Experimental: (§1) 6 DLBCL cell lines were treated by increasing doses of PARP inhibitor (PJ34 hydrochloride). DLBCL cell lines growth was quantified with a Cell Titer Glo Luminescent Assay (Promega, Madison, Wis., USA) and the 50% inhibitory concentration (IC50) was determined using GraphPad Prism software (http://www.graphpad.com/scientific-software/prism/) (FIG. 7A).

[2] = tested on: OCILY3; assay: DLBCL cell line growth inhibition (Cell Titer Glo Luminescent Assay), OCILY3; conditions: read-out: PJ34 IC50
Experimental: as §1

[3] = tested on: OCILY1; assay: DLBCL cell line growth inhibition (Cell Titer Glo Luminescent Assay), OCILY1; conditions: read-out: PJ34 IC50
Experimental: as §1

[4] = tested on: U2932; assay: DLBCL cell line growth inhibition (Cell Titer Glo Luminescent Assay), U2932; conditions: read-out: PJ34 IC50
Experimental: as §1

[5] = tested on: DOHH2; assay: DLBCL cell line growth inhibition (Cell Titer Glo Luminescent Assay), DOHH2; conditions: DOHH cell line (high HRR score)
Experimental: as §1

[6] = tested on: OCILY7; assay: DLBCL cell line growth inhibition (Cell Titer Glo Luminescent Assay), OCILY7; conditions: OCILY7 cell line (high HRR score)
Experimental: as §1

[7] = tested on: DLBCL cell lines; assay: DLBCL cell lines growth inhibition (Cell Titer Glo Luminescent Assay), panel of 6 cell lines
Experimental: as §1

For CN(C)CC(=O)Nc1ccc2[nH]c(=O)c3ccccc3c2c1.Cl [PJ34, PJ34 hydrochloride], the IC50 [1] was 8.08 µM, the IC50 [2] was 7.26 µM and the IC50 [3] was 7.57 µM. The IC50 [4] was 7.2 µM, the IC50 [5] was 15.2 µM and the IC50 [6] was 14 µM. For the same molecule, the “sensitivity to PARPi” value ([7]; DLBCL cell lines with a high BER score, excluding the cell lines with a high HRR score) was “sensitive”, the IC50 ([7]; DLBCL cell lines with a lower HRR score, read-out: median IC50) was 7.41 µM and the IC50 ([7]; median over 6 DLBCL cell lines) was 7.82 µM. For the same molecule, the “fold higher resistance to PARPi” value ([7]; two DLBCL cell lines with high HRR score compared to cell lines with a lower HRR score) was 2 fold.
